Laboratory results: ChEMBL document CHEMBL3507680, “University of Dundee, Gates Library screen for HepG2 cell viability”

assay: Human HepG2 cell viability assay in 384 well format; assay type: toxicity, cell-based; set-up: dose 125 nL, time 70.5 hour; cytotoxicity at 70.5 h: concentration not given beside the values; conditions: HepG2 cells, read-out: Inhibition

SMILES	cytotoxicity at 70.5 h [%]
OCC(CO)N1CCC(c2nccnc2Nc2cnccn2)CC1	-2.76
CC(C)NC(=O)N1CCc2onc(C(=O)Nc3cccnc3)c2C1	-9.09
O=C(c1cccnc1)N1CCC2(CC1)COC(COc1ccccn1)C2 (configuration not stated)	-11.7
Cc1nn(C)c(=O)c2nn(-c3cccc(Cl)c3)c(C)c12	-14.1
COc1cc(CNc2ccccc2Cl)ccc1OCC(=O)O	19
COCCC(=O)N1Cc2nc3c(C)c(-c4cccs4)nn3c(O)c2C1	-14.7
COC(=O)C1(NCc2nc(C)c(C)o2)CCC(C)CC1 (configuration not stated)	-8.62
Cc1cc(C2CCCN2Cc2nc(-c3ccco3)no2)on1 (configuration not stated)	-0.568
CCc1cc(N(C)Cc2ccncn2)n2nc(C)c(C)c2n1	-5.09
O=C(c1cc[nH]n1)N1CCc2onc(COc3cccnc3)c2C1	-6.72
COCC(=O)N1CC(C(=O)NCC2CC2)C2(CCOCC2)C1 (configuration not stated)	-3.19
COc1ccc(-n2ccnc2-c2cnc(N(C)C)nc2)cc1OC	-6.47
Cc1noc(C2CCCN(C(=O)c3cc(Cl)ccc3F)C2)n1 (configuration not stated)	-7.27
CCOc1cccc(C(C(=O)O)N(C)Cc2cc(C)no2)c1 (configuration not stated)	-9.85
CCOCc1nc2c(c(N3CC=CC3)n1)CCN(CC1CC1)CC2	9.81
CCN1CCC2(CC1)CC(NC(=O)c1csnn1)c1ccccc1O2 (configuration not stated)	-7.53
CCOCCC(=O)N1CCCC(c2cc(C(F)(F)F)[nH]n2)C1 (configuration not stated)	-10.6
CCCc1nnc(NC(C)c2ccc3c(c2)OCCO3)o1 (configuration not stated)	19.1
Cn1ncc(C(=O)N2CCCC(n3cccn3)C2)c1C1CC1 (configuration not stated)	-4.62

SMILES	cytotoxicity at 70.5 h [%]
CCn1ncc2c1CCCC2NCc1ccccc1N1CCOCC1 (configuration not stated)	7.21
O=C(CCNc1ncccn1)NCCOc1ccc2c(c1)CCC2	-16.3
CCn1ncc(CN(C)C(=O)c2ccn(C)n2)c1C	-6.74
Cn1cc(CN2CCC(c3ncc(Cl)cc3S(C)(=O)=O)CC2)cn1	-6.32
Cc1noc(C)c1CNc1cccc(C(=O)N(C)c2ccccc2)c1	14.2
Cn1nc(CN2CCOCC2)c2c1CN(Cc1ccsc1)C2	-5.85
c1cc2c(cc1CN1C[C@@H]3COC[C@@H](N4CCCC4)[C@@H]3C1)OCO2	-6.89
Cn1cc(NS(=O)(=O)CCOc2ccc(F)cc2)cn1	-4.23
CCn1nc(C)c(CNC(=O)NCC(C)(O)c2ccccc2)c1C (configuration not stated)	-3.1
CN(C)C(=O)[C@@H]1C[C@@H]2CCN(Cc3nccs3)C[C@@H]2O1	-6.01
Cc1occc1C(=O)N1CC[C@@H]2[C@@H](CO[C@H]2CNS(C)(=O)=O)C1	-1.5
c1coc(CN2CCC(c3ccc4c(c3)OCO4)CC2)c1	-3.77
CCc1cn[nH]c1C1CCCN(C(=O)c2noc(C)c2COC)C1 (configuration not stated)	-10.2
CN(C)CCN1CCOCC2(CCCN(C(=O)c3cccn3C)C2)C1 (configuration not stated)	0.0252
CC(C)(C)c1cc(NC(=O)CN2CCC(N3CCNC3=O)CC2)on1	17
CCN(CC)c1ccc(CNC(=O)c2ccc(=O)[nH]n2)cn1	-13.1
O=S(=O)(NCc1ccc(S(=O)(=O)N2CCCC2)s1)c1ccc(F)cc1Cl	-1.37
CNc1cc(C2CN(C(=O)c3ccccc3)CCO2)nc(C)n1 (configuration not stated)	-5.28
CC(C)(C)c1cnc(CNCC2CCCN2c2cccnn2)o1 (configuration not stated)	18.8

SMILES	cytotoxicity at 70.5 h [%]
CCOc1ccc(NC(=O)N2CCC(n3cncn3)CC2)cc1Cl	19.7
CCCN1CCN(C(=O)c2cccc(C)n2)[C@H]2CS(=O)(=O)C[C@H]21	14.2
O=S1(=O)CCCN(Cc2ccccc2OCC(F)(F)F)CC1	-8.02
CCOc1ccc(C(=O)N2Cc3cnc(CC(C)C)nc3C2)o1	-4.06
CCc1nnc(CN(CC)C(=O)C2CC(=O)N(C3CC3)C2)o1 (configuration not stated)	-3.34
O=C(Cc1ccsc1)N1CCc2ccc(=O)n(CC3CC3)c2CC1	-3.62
Cc1cc2ccccc2n1CCC(=O)N1CCC2(CC1)CNC(=O)C2	3.32
CNC(=O)c1csc(-c2ccoc2)n1	-4.01
O=C(Nc1ccc(-n2cccn2)cc1)N1C[C@H](O)[C@@H](N2CCOCC2)C1	-13.4
CCC1c2ccsc2CCN1C(=O)NCc1cc(C)on1 (configuration not stated)	-4.73
CCC1c2ccsc2CCN1C(=O)NCCNc1ncccn1 (configuration not stated)	0.287
Cn1nnc2c1CCN(Cc1ccncc1)C2COCC1CC1 (configuration not stated)	-9.81
CCn1ncc(-c2nc3c[nH]n(CC)c-3n2)c1C	0.803
O=C(NCCn1ccnc1)c1ccn(-c2cccc(F)c2)n1	12.4
Cc1cc(C(=O)N2CC[C@@H]3CN(C)S(=O)(=O)[C@@H]3CC2)no1	-7.25
Cc1cccc(-c2ccc(C(=O)NCC(C)(C)C(N)=O)c(=O)[nH]2)c1	-18.8
Cn1cc(CN2CCC(F)(F)C3(CCN(c4cccnc4)C3)C2)cn1 (configuration not stated)	-9.49
COc1ccsc1C(=O)Nc1cc(Br)c(=O)n(C)c1	-4.19
O=C(CCc1c[nH]cn1)N1CC[C@@H](c2ccc3ccccc3c2)[C@H](O)C1	-8.55
